Data published in patent US9233110B2, “Protein nanocarriers for topical delivery” (priority 2008, dated 2016).

Columns and labels:
[1] = tested on: skin; settings: Cornwell and Barry 1993; cited from earlier work
[2] = in words; cited from earlier work
[3] = tested on: porcine dermatomed skin; assay: Skin penetration of rhodamine 123 (fluorescence and confocal microscopy); assay type: in vitro ADME; settings: 10 μg rhodamine 123 equivalent, 6 hours, cryosections
Method: For stratum corneum (SC) 0-20 μm and for epidermis 20-100 μm XZ optical sections from confocal microscopic images were used for quantifying the fluorescence pixels. The nanoparticles were prepared using the method described in Table 8-1.
Later the skin was sectioned with cryotome and observed under a fluorescent microscope.

[4] = cited from earlier work

Row | SMILES | skin permeability [1] | solubility in water [2] | penetration into skin [3] | Log P [4]
1 | O=c1[nH]cc(F)c(=O)[nH]1 [5-Fluorouracil (5-FU), 5-Fluorouracil] | poorly permeable through skin | partially soluble in cold water |  | 
2 | COC(=O)c1ccccc1-c1c2ccc(=N)cc-2oc2cc(N)ccc12.Cl [Rhodamine 123] |  |  | restricted to the top layer of skin (SC) | 1.2
